# Test results as given in US7482008B1, “Human T cell reactive feline protein (TRFP) isolated from house dust and uses therefor” (Merck Patent GmbH, priority 1989, dated 2009).
# Assays:
# Format in all cases: in vivo, mouse
# mice primed to rch1 = assay: Duration of peptide inhibitory effects on T cell function in rCh1 primed mice; conditions: FIG. 25
# Protocol: Mice were injected with recombinant TRFP Chain 1 (rCh1) in Incomplete Freund's Adjuvant. Three months later all the mice were primed to rch1 as judged by their development of significant titers of anti-rch1 antibody.
# Balb/c mice [1] = assay: Oral rChain 1, single vs multiple doses, protocol 3
# Protocol: Five groups of five age-matched Balb/c mice were fed on days −7, −5 and −2 with 250 μg rChain 1 (Groups 1 and 4), 750 μg rChain 1 (Group 2), or with PBS (Groups 3 and 5). On day 0, the mice in Groups 1-3 were challenged with a s.c. injection of 100 μg rChain 1 in CFA, while the mice in Groups 4 and 5 were not challenged. On day 12 the draining and mesenteric lymph nodes and spleens were removed for proliferation, IL-2, IL-4 and TGF-beta assays.
# The draining lymph nodes (i.e., inguinal, paraaortic and popliteal), the mesenteric lymph nodes, and the spleen were surgically removed from the animals 10-12 days after antigen challenge. Cells from these tissues were suspended by being forced through a stainless steel mesh with a glass pestle. The cells were washed twice in RPMI 1640 medium with a 1% fetal calf serum (FCS) before culture. All cells were cultured at 37° C. in 5% CO2 in RPMI 1640 with 10% FCS (no. F4884, Sigma), 100 units of penicillin G per ml, 10 μg of streptomycin per ml, 10 mM glutamine, and 0.05 mM 2-mercaptoethanol. […]. Cells were cultured in triplicate, 0.2 ml per well at 4×10^6 cells per ml, in 96-well plates. Supernatants were removed from the wells after 24 hours to test for the production of IL-2 or IL-3 and were frozen to kill any transferred cells or removed after 48 hours for testing IL-4 production. Separate triplicate wells were incubated for 96 hours for the proliferation assay. The supernatants were kept at […] for several days to kill transferred cells.
# Lymph node of spleen cells were plated in a flat bottom 96-well plate (4×10^5/well) in 100 μl medium. Peptide or recombinant protein or control solution (100 μl) is added to each well and the cells allowed to incubate for 1 day at 37° C. On day 2, the cultures were pulsed with [^3H] thymidine (1 μCi per well in 50 μl of medium; 1 Ci=37 GBq) for 4 to 6 hours, and on day 3, the plates were harvested with a 96-well harvester (Tomtec, Orange, Conn.) and counted on a Betaplate scintillation counter (Pharmacia, Upsaala Sweden).
# To measure IL-2, supernatants were tested after thawing for the ability to support the growth of an IL-2-dependent line such as CTLL-2 (University of California, Berkeley). The cell line was maintained by passage in 10% supernatant of Con A-stimulated (5 μg/ml) rat spleen cells. This cell line is dependent almost exclusively on IL-2 for growth and survival, proliferating only weakly to high doses of recombinant IL-4. […] After a 24 hour incubation, the cells were pulsed with [^3H] thymidine (1 μCi per well in 50 μl of medium; 1 Ci=37 GBq) for 4 to 6 hours and the plates were harvested with a 96-well harvester (Tomtec, Orange, Conn.) and counted on a Betaplate scintillation counter (Pharmacia, Upsaala Sweden). […]
# Balb/c mice [2] = assay: Oral rChain 1, IgG and IgE response after repeated challenge, protocol 5; conditions: oral 250 μg days -7, -5, -2
# Protocol: Two groups of five age-matched Balb/c were fed on days −7, −5 and −2 with 250 μg rChain 1 (Group 1) or PBS (Group 2). On day 0, the mice were challenged with 10 μg rChain 1 on alum administered i.p., and on days 47 and 78, the mice were again challenged with 25 μg rChain 1 on alum administered i.p. The antibody response was measured by ELISA (see below).
# Subsequent incubations were for 1 hour at 37° C. The wells were washed with PBS containing 0.05% Tween 20 and blocked with 0.5% gelatin in PBS. Sera were diluted in PBS as noted in the individual assay and were incubated in triplicate on the washed plates. After incubation and washing, the bound mouse antibody was detected by incubation with biotinylated goat anti-mouse IgG (Southern Biotechnology Ass.). Streptavidin conjugated to horseradish peroxidase (Southern Biotechnology Associates) was added to detect antigen-bound biotinylated antibody complexes. 3,3′,5,5′-Tetramethylbenzidine peroxidase substrate (Kirkegaard & Perry Labs) was used according to directions supplied, and resulting OD (450 nm) values were determined using an ELISA reader (Bio-Tek model 310, Winooski, Vt.). […]
# Antigen-bound IgE was detected similarly except using a biotinylated rat monoclonal antibody specific for mouse IgE (Baniyash et al. (1984) Eur. J. Immunol. 14:799-807). […]
substance,measurement,setting,value
peptide Y: amino acid residues 29-55 from chain 1 of TRFP (SEQ. ID. NO: 18) (KALPVVLENARILKNCVDAKMTEEDKE),duration of inhibitory effects of subcutaneous peptide injection on T cell function,mice primed to rch1,up to 56 days
recombinant chain 1: recombinant TRFP chain 1 expressed in E. coli,production of IL-2 by mesenteric lymph node cells,"Balb/c mice [1]; cultured with rChain 1, Peptide X, and Peptide Y",detectable tolerizing effect
same,spleen cell response to peptide X,"Balb/c mice [1]; mouse, in vivo",not changed
same,spleen cell response to rChain 1 and peptide Y,"Balb/c mice [1]; mouse, in vivo",moderately decreased
same,"draining node response, single oral 750 μg vs several doses of 250 μg","Balb/c mice [1]; mouse, in vivo, po",more effective
same,specific IgG and IgE responses after repeated challenge with rChain 1 in alum,Balb/c mice [2],decreases specific IgG and IgE responses
